According to patent publication US20210221812A1, “MATRINE a-KETOAMINE COMPOUNDS, PREPARATION METHOD THEREFOR AND USE THEREOF” (SHANGHAI XINGYE PHARMACEUTICAL TECHNOLOGY CO., LTD, priority 2018, published 2021):

Legend:
[1] = tested on: k562 cells; test: MTT tumor cell growth inhibition, k562; format: cell-based; settings: Homo sapiens, 48 h, read-out: Tumors growth-inhibitory activity (IC50) k562
Protocol: (§1) Using MTT method to determine the growth inhibition activity of the matrine compounds on Lovo, MGC-803, Mia-paca2, HpeG-2, A549, k562, and Panc-1 cells in vitro. Logarithmic growth phase of Lovo, MGC-803, Mia-paca2, HpeG-2, A549, k562, Panc-1 cells were inoculated into 96-well plates (purchased from Institute of Biochemical Cells, Chinese Academy of Sciences, and cultured according to conventional tumor cell culture methods) at a density of 4×10^4/mL and 180 μL/well; after the cells adhered to the wall, 20 μL of drug solution was added to each well and matined the final drug concentrations were 0.1 μM, 1 μM, 10 μM, 50 μM, 100 μM respectively. After 48 h, 5 mg/mL MTT solution was added (20 μL/well) and maintained in a CO2 incubator for 3-4 h. After that, discarding the supernatant carefully, and DMSO was added (200 μL/well) when the residual liquid was air-dried, and shook for 0.5-1 h until the residual crystals was dissolved. The absorbance OD was measured at 492 nm by a microplate reader. GraphPad Prism 5 software was used to calculate the IC50 value.

[2] = tested on: MGC-803 cells; test: MTT tumor cell growth inhibition, MGC-803; format: cell-based; settings: Homo sapiens, 48 h, read-out: Tumors growth-inhibitory activity (IC50) MGC-803
Protocol: as §1

[3] = tested on: A549 cells; test: Anti-tumor activity of NK cells activated by compounds, A549 (CFSE/PI flow cytometry); format: cell-based; settings: Homo sapiens, tumor cells treated with 20 μM compound 48 h, then mixed with NK cells 5:1 for 4 hours, CFSE+PI+ tumor cells, read-out: A549 inhibition rate (%)
Protocol: (§2) Logarithmic growth phase of Lovo, HpeG-2, A549, k562, Panc-1 cells were collected and seeded in a 6-well plate at a density of 5×10^5/mL and 2 mL/well separately. The experimental group was treated with 20 μM final drug concentration of GJDx compounds, and the control group was treated with an equal volume of RPMI1640 medium. The groups were cultured at 37° C., saturated humidity, 5% CO2 for 48 h. After that, the cells of each group were collected, centrifuged and the supernatant was removed and resuspended in PBS at a density of 1×10^6/mL. Then 2 μL of CFSE stock solution (final concentration was 10 μM) was added into the cell suspension per 1 mL and cultured at 37° C. with 5% CO2 for 30 min, and then added 5-10 times of the volume of 4° C. pre-chilled RPM 1640 complete medium, and incubated on ice for 5 minutes, discarded the supernatant by centrifugation at 4° C., and wash the cells with fresh medium for 3 times. After that, mixing the labeled tumor cells and NK cells (the NK cell culture medium was α-MEM contained 1.5 g/L sodium bicarbonate, 12.5% fetal bovine serum, and 12.5% horse serum) according to the ratio of 5:1, the mixture cells was collected and washed with flow buffer twice after incubated for 4 hours, then 50 μg/mL PI was added, and incubated at room temperature for 15 minutes in the dark, and finally testing the percentage of CFSE^+PI^+ tumor cells on the flow cytometer.

[4] = tested on: Lovo cells; test: MTT tumor cell growth inhibition, Lovo; format: cell-based; settings: Homo sapiens, 48 h, read-out: Tumors growth-inhibitory activity (IC50) Lovo
Protocol: as §1

[5] = tested on: Panc-1 cells; test: MTT tumor cell growth inhibition, Panc-1; format: cell-based; settings: Homo sapiens, 48 h, read-out: Tumors growth-inhibitory activity (IC50) Panc-1
Protocol: as §1

[6] = tested on: Lovo cells; test: Anti-tumor activity of NK cells activated by compounds, Lovo (CFSE/PI flow cytometry); format: cell-based; settings: Homo sapiens, tumor cells treated with 20 μM compound 48 h, then mixed with NK cells 5:1 for 4 hours, CFSE+PI+ tumor cells, read-out: Lovo inhibition rate (%)
Protocol: as §2

[7] = tested on: A549 cells; test: MTT tumor cell growth inhibition, A549; format: cell-based; settings: Homo sapiens, 48 h, read-out: Tumors growth-inhibitory activity (IC50) A549
Protocol: as §1

[8] = tested on: Mia-paca2 cells; test: MTT tumor cell growth inhibition, Mia-paca2; format: cell-based; settings: Homo sapiens, MIA PaCa-2, 48 h, read-out: Tumors growth-inhibitory activity (IC50) Mia-paca2
Protocol: as §1

[9] = tested on: Panc-1 cells; test: Anti-tumor activity of NK cells activated by compounds, Panc-1 (CFSE/PI flow cytometry); format: cell-based; settings: Homo sapiens, tumor cells treated with 20 μM compound 48 h, then mixed with NK cells 5:1 for 4 hours, CFSE+PI+ tumor cells, read-out: Panc-1 inhibition rate (%)
Protocol: as §2

[10] = tested on: HpeG-2 cells; test: Anti-tumor activity of NK cells activated by compounds, HpeG-2 (CFSE/PI flow cytometry); format: cell-based; settings: tumor cells treated with 20 μM compound 48 h, then mixed with NK cells 5:1 for 4 hours; CFSE+PI+ tumor cells; read-out: HpeG-2 inhibition rate (%)
Protocol: as §2

[11] = tested on: HpeG-2 cells; test: MTT tumor cell growth inhibition, HpeG-2; format: cell-based; settings: 48 h, read-out: Tumors growth-inhibitory activity (IC50) HpeG-2
Protocol: as §1

[12] = tested on: TNF-α; test: TNF-α activity inhibiting assay (LPS-stimulated peripheral blood, ELISA); format: cell-based, human; settings: Homo sapiens, compound 20 μM, LPS 10 ng/mL, 6 hours, diluted peripheral blood of healthy volunteers, read-out: TNF-α inhibition rate (%)
Protocol: Methods: Peripheral blood from healthy volunteers was collected with EDTA anticoagulant tubes. After being diluted 5-fold with 1640 medium (Gibco, USA), the blood was added to 96-well cell culture plates (Costar, USA) and then treated with 10 μL solution of the compound of general formula (I) of the present invention in DMSO (Sigma, USA), the final concentration of the compound was 20 μM with the final concentration of DMSO was 0.2%. After incubation for 60 minutes in an incubator at 37° C. under 5% CO2, 10 μL LPS (Sigma, USA) was added to the reaction system, and the final concentration was 10 ng/mL. After further culturing for 6 hours in the incubator at 37° C. under 5% CO2, the supernatant was collected. The content of TNF-α was determined by ELISA (BD Biosciences, USA). Absorbance was detected at OD450 nm with a microplate reader, with OD 650 nm as reference. The control, a solution containing 0.2% DMSO medium, was as 0% inhibition. Raw data and standard curves were recorded. The four-parameter drug inhibition curve was plotted by XL-fit software and the inhibition rate of each compound was calculated.

[13] = tested on: k562 cells; test: Anti-tumor activity of NK cells activated by compounds, k562 (CFSE/PI flow cytometry); format: cell-based; settings: Homo sapiens, tumor cells treated with 20 μM compound 48 h, then mixed with NK cells 5:1 for 4 hours, CFSE+PI+ tumor cells, read-out: k562 inhibition rate (%)
Protocol: as §2

| Structure (SMILES) | IC50 [1] | IC50 [2] | inhibition at 20 µM [3] | IC50 [4] | IC50 [5] | inhibition at 20 µM [6] | IC50 [7] | IC50 [8] | inhibition at 20 µM [9] | inhibition at 20 µM [10] | IC50 [11] | inhibition at 20 µM [12] | inhibition at 20 µM [13] |
| --- | --- | --- | --- | --- | --- | --- | --- | --- | --- | --- | --- | --- | --- |
| O=C1c2ccccc2C(=O)N1C1CC[C@@H]2[C@H]3CCCN4CCC[C@@H](CN2C1=O)[C@@H]34 (some centres unmarked) [GJD 01] | 50 to 100 µM | > 100 µM | > 50% | 50 to 100 µM | > 100 µM | ≥ 50% | 50 to 100 µM | > 100 µM | < 50% | > 50% | 50 to 100 µM | ≥ 50% | < 50% |
| Nc1cccc2c1C(=O)N(C1CC[C@@H]3[C@H]4CCCN5CCC[C@@H](CN3C1=O)[C@@H]45)C2=O (some centres unmarked) [GJD 02] | < 50 µM | 50 to 100 µM | > 50% | < 50 µM | < 50 µM | > 50% | 50 to 100 µM | 50 to 100 µM | > 50% | > 50% | < 50 µM | > 50% | > 50% |
| O=C1c2cccc(C(F)(F)F)c2C(=O)N1C1CC[C@@H]2[C@H]3CCCN4CCC[C@@H](CN2C1=O)[C@@H]34 (some centres unmarked) [GJD 07] | 50 to 100 µM | 50 to 100 µM | < 50% | < 50 µM | 50 to 100 µM | > 50% | > 100 µM | 50 to 100 µM | > 50% | > 50% | 50 to 100 µM | > 50% | > 50% |
| O=C1c2cccnc2C(=O)N1C1CC[C@@H]2[C@H]3CCCN4CCC[C@@H](CN2C1=O)[C@@H]34 (some centres unmarked) [GJD 15] | – | – | > 50% | – | – | > 50% | – | – | > 50% | > 50% | – | – | < 50% |
| O=C1[C@H](N2C(=O)c3ccccc3C2=O)CC[C@@H]2[C@H]3CCCN4CCC[C@@H](CN12)[C@@H]34 [GJD 26] | – | – | > 50% | – | – | > 50% | – | – | > 50% | > 50% | – | – | > 50% |
| O=C1c2cccc([N+](=O)[O-])c2CN1C1CC[C@@H]2[C@H]3CCCN4CCC[C@@H](CN2C1=O)[C@@H]34 (some centres unmarked) [GJD 31] | – | – | > 50% | – | – | > 50% | – | – | ≥ 50% | > 50% | – | – | > 50% |
| O=C1c2ccccc2CN1C1CC[C@@H]2[C@H]3CCCN4CCC[C@H](CN2C1=O)[C@@H]34 (some centres unmarked) [GJD 42] | – | – | > 50% | – | – | > 50% | – | – | < 50% | > 50% | – | – | < 50% |
| CC(=O)Oc1ccccc1C(=O)NC1CC[C@@H]2[C@H]3CCCN4CCC[C@@H](CN2C1=O)[C@@H]34 (some centres unmarked) [GJD 51] | – | – | < 50% | – | – | < 50% | – | – | < 50% | > 50% | – | – | < 50% |
| O=C(NC1CC[C@@H]2[C@H]3CCCN4CCC[C@@H](CN2C1=O)[C@@H]34)c1cc(Cl)ccc1O (some centres unmarked) [GJD 55] | 50 to 100 µM | > 100 µM | < 50% | 50 to 100 µM | 50 to 100 µM | < 50% | < 50 µM | 50 to 100 µM | > 50% | < 50% | < 50 µM | – | < 50% |
| Nc1cccc2c1C(=O)N(C1CC[C@@H]3[C@H]4CCC[N+]5([O-])CCC[C@@H](CN3C1=O)[C@@H]45)C2=O (some centres unmarked) [GJD 63] | – | – | > 50% | – | – | > 50% | – | – | > 50% | > 50% | – | – | > 50% |
| O=C1CCC[C@@H]2[C@H]3CCCN4CCC[C@@H](CN12)[C@@H]34 [Matrine, matrine] | > 100 µM | > 100 µM | – | 50 to 100 µM | > 100 µM | – | > 100 µM | > 100 µM | – | – | 50 to 100 µM | < 50% | – |
